According to patent publication US20250197359A1, “CANNABINOID RECEPTOR MODULATING COMPOUNDS” (The U.S.A., as Represented by the Secretary, Department of …, priority 2022, published 2025):

target: CB1 (UniProt P21554); test: CB1 radioligand binding assay; design: species or system human; settings: read-out: Ki (CB1)
Procedure: The target compounds were evaluated in vitro at the human CB1 receptor, stably expressed into Chinese hamster ovary (CHO) cells by utilizing radioligand binding studies.
The binding constant for the synthesized compounds were determined by using radioligand binding assay in mouse brain membranes as well as the target compounds were evaluated in vitro at the human CB1 receptor, stably expressed into Chinese hamster ovary (CHO) cells as well as mouse brain membrane CB1. […]

SMILES	Ki
C/C(N)=N/C(=N/S(=O)(=O)c1ccc(C(F)(F)F)cc1)N1CCC(c2ccccc2)C(c2ccc(F)cc2)=N1 (stereo not shown) [Compound 10zc, (Z)—N—((Z)-1-aminoethylidene)-3-(4-fluorophenyl)-4-phenyl-N′-((4-(trifluoromethyl)phenyl)sulfonyl)-5,6-dihydropyridazine-1 (4H)-carboximidamide]	120 nM
CS/C(N)=N\C(=N\S(=O)(=O)c1ccc(Cl)cc1)N1CCC(c2ccccc2)C(c2ccc(Cl)cc2)=N1 (stereo not shown) [Compound 11a, methyl (Z)—N′—((Z)-(3-(4-chlorophenyl)-4-phenyl-5,6-dihydropyridazin-1 (4H)-yl)(((4-chlorophenyl)sulfonyl)imino)methyl)carbamimidothioate]	210 nM
CS/C(N)=N\C(=N\S(=O)(=O)c1cccc(C(F)(F)F)c1)N1CCC(c2ccccc2)C(c2ccc(Cl)cc2)=N1 (stereo not shown) [Compound 11c, methyl (Z)—N′—((Z)-(3-(4-chlorophenyl)-4-phenyl-5,6-dihydropyridazin-1 (4H)-yl)(((3-(trifluoromethyl)phenyl)sulfonyl)imino)methyl)carbamimidothioate]	234 nM
CS/C(N)=N\C(=N\S(=O)(=O)c1ccc(OC(F)(F)F)cc1)N1CCC(c2ccccc2)C(c2ccc(Cl)cc2)=N1 (stereo not shown) [Compound 11d, methyl (Z)—N′—((Z)-(3-(4-chlorophenyl)-4-phenyl-5,6-dihydropyridazin-1 (4H)-yl)(((4-(trifluoromethoxy)phenyl)sulfonyl)imino)methyl)carbamimidothioate]	151 nM
CS/C(N)=N\C(=N\S(=O)(=O)c1ccc(C#N)cc1)N1CCC(c2ccccc2)C(c2ccc(Cl)cc2)=N1 (stereo not shown) [Compound 11e, methyl (Z)—N′—((Z)-(3-(4-chlorophenyl)-4-phenyl-5,6-dihydropyridazin-1 (4H)-yl)(((4-cyanophenyl)sulfonyl)imino)methyl)carbamimidothioate]	138 nM
CS/C(N)=N\C(=N\S(=O)(=O)c1ccc2ccccc2c1)N1CCC(c2ccccc2)C(c2ccc(Cl)cc2)=N1 (stereo not shown) [Compound 11f, methyl (Z)—N′—((Z)-(3-(4-chlorophenyl)-4-phenyl-5,6-dihydropyridazin-1 (4H)-yl)((naphthalen-2-ylsulfonyl)imino)methyl)carbamimidothioate]	590 nM
CS/C(N)=N\C(=N\S(=O)(=O)c1ccccc1)N1CCC(c2ccccc2)C(c2ccc(Cl)cc2)=N1 (stereo not shown) [Compound 11g, methyl (Z)—N′—((Z)-(3-(4-chlorophenyl)-4-phenyl-5,6-dihydropyridazin-1 (4H)-yl)((phenylsulfonyl)imino)methyl)carbamimidothioate]	1600 nM
COc1ccc(S(=O)(=O)/N=C(/N=C(/N)SC)N2CCC(c3ccccc3)C(c3ccc(Cl)cc3)=N2)cc1 (stereo not shown) [Compound 11h, methyl (Z)—N′—((Z)-(3-(4-chlorophenyl)-4-phenyl-5,6-dihydropyridazin-1 (4H)-yl)(((4-methoxyphenyl)sulfonyl)imino)methyl)carbamimidothioate]	1070 nM
C[Se]/C(N)=N\C(=N\S(=O)(=O)c1ccc(OC(F)(F)F)cc1)N1CCC(c2ccccc2)C(c2ccc(Cl)cc2)=N1 (stereo not shown) [Compound 12d, methyl (Z)—N′—((Z)-(3-(4-chlorophenyl)-4-phenyl-5,6-dihydropyridazin-1 (4H)-yl)(((4-(trifluoromethoxy)phenyl)sulfonyl)imino)methyl)carbamimidoselenoate]	194 nM
C[Se]/C(N)=N\C(=N\S(=O)(=O)c1ccc(C#N)cc1)N1CCC(c2ccccc2)C(c2ccc(Cl)cc2)=N1 (stereo not shown) [Compound 12e, methyl (Z)—N′—((Z)-(3-(4-chlorophenyl)-4-phenyl-5,6-dihydropyridazin-1 (4H)-yl)(((4-cyanophenyl)sulfonyl)imino)methyl)carbamimidoselenoate]	179 nM
C[Se]/C(N)=N\C(=N\S(=O)(=O)c1ccc2ccccc2c1)N1CCC(c2ccccc2)C(c2ccc(Cl)cc2)=N1 (stereo not shown) [Compound 12f, methyl (Z)—N′—((Z)-(3-(4-chlorophenyl)-4-phenyl-5,6-dihydropyridazin-1 (4H)-yl)((naphthalen-2-ylsulfonyl)imino)methyl)carbamimidoselenoate]	317 nM
C[Se]/C(N)=N\C(=N\S(=O)(=O)c1ccccc1)N1CCC(c2ccccc2)C(c2ccc(Cl)cc2)=N1 (stereo not shown) [Compound 12g, methyl (Z)—N′—((Z)-(3-(4-chlorophenyl)-4-phenyl-5,6-dihydropyridazin-1 (4H)-yl)((phenylsulfonyl)imino)methyl)carbamimidoselenoate]	2800 nM
COc1ccc(S(=O)(=O)/N=C(/N=C(/N)[Se]C)N2CCC(c3ccccc3)C(c3ccc(Cl)cc3)=N2)cc1 (stereo not shown) [Compound 12h, methyl (Z)—N′—((Z)-(3-(4-chlorophenyl)-4-phenyl-5,6-dihydropyridazin-1 (4H)-yl)(((4-methoxyphenyl)sulfonyl)imino)methyl)carbamimidoselenoate]	1100 nM
C[Se]/C(N)=N/C(=N/S(=O)(=O)c1ccc(C(F)(F)F)cc1)N1CCC(c2ccccc2)C(c2ccc(F)cc2)=N1 (stereo not shown) [Compound 12i, methyl (E)-N′—((Z)-(3-(4-fluorophenyl)-4-phenyl-5,6-dihydropyridazin-1 (4H)-yl)(((4-(trifluoromethyl)phenyl)sulfonyl)imino)methyl)carbamimidoselenoate]	110 nM
CC(=O)N/C(N)=N\C(=N\S(=O)(=O)c1ccc(C(F)(F)F)cc1)N1CCC(c2ccccc2)C(c2ccc(Cl)cc2)=N1 (stereo not shown) [Compound 14, N—((Z)—N′—((Z)-(3-(4-chlorophenyl)-4-phenyl-5,6-dihydropyridazin-1 (4H)-yl)(((4-(trifluoromethyl)phenyl)sulfonyl)imino)methyl)carbamimidoyl) acetamide]	5 nM
O=S(=O)(/N=C(\N=C1/CCCN1)N1CCC(c2ccccc2)C(c2ccc(Cl)cc2)=N1)c1ccc(C(F)(F)F)cc1 (stereo not shown) [Compound 17, (E)-3-(4-chlorophenyl)-4-phenyl-N—((E)-pyrrolidin-2-ylidene)-N′-((4-(trifluoromethyl)phenyl)sulfonyl)-5,6-dihydropyridazine-1 (4H)-carboximidamide]	117 nM

Next, values leading:

Ki	SMILES
785 nM	CCC(N/C(=N/S(=O)(=O)c1ccc(C(F)(F)F)cc1)N1CCC(c2ccccc2)C(c2ccc(Cl)cc2)=N1)C(N)=O (single isomer, unassigned) [Compound 32a, (Z)-2-(3-(4-chlorophenyl)-4-phenyl-N′-((4-(trifluoromethyl)phenyl)sulfonyl)-1,4,5,6-tetrahydropyridazine-1-carboximidamido) butanamide]
24.6 nM	CC(=O)N/C(N)=N\C(=N\S(=O)(=O)c1ccc(C#N)cc1)N1CCC(c2ccccc2)C(c2ccc(Cl)cc2)=N1 (stereo not shown) [Compound 13a, N—((Z)—N′—((Z)-(3-(4-chlorophenyl)-4-phenyl-5,6-dihydropyridazin-1 (4H)-yl)(((4-cyanophenyl)sulfonyl)imino)methyl)carbamimidoyl) acetamide]

same assay, conditions: read-out: Ki (CB1) in nM

SMILES	Ki
C[Se]/C(N)=N\C(=N\S(=O)(=O)c1ccc(Cl)cc1)N1CCC(c2ccccc2)C(c2ccc(Cl)cc2)=N1 (stereo not shown) [Compound 12a, methyl (Z)—N′—((Z)-(3-(4-chlorophenyl)-4-phenyl-5,6-dihydropyridazin-1 (4H)-yl)(((4-chlorophenyl)sulfonyl)imino)methyl)carbamimidoselenoate]	45 nM
